Values of other authors in article PMC7832358, “Trending Topics on Coumarin and Its Derivatives in 2020” (Molecules, 2021).

How the values were obtained:
[1] = target: xanthine oxidase; parameters: method as in PMID 32574739; conditions: read-out: xanthine oxidase inhibition IC50
[2] = test system: B16F10 cells; parameters: method as in PMID 32574739
[3] = test system: streptozotocin (STZ)-induced cognitive dysfunction in rats
[4] = test system: streptozotocin (STZ)-induced cognitive dysfunction in rats; remark: listed apart in the source
[5] = test system: Ebolavirus (EBOV); conditions: read-out: IC50 against EBOV
[6] = test system: Marburg virus (MARV); conditions: read-out: IC50 against MARV
[7] = test system: hMAO-B; conditions: read-out: hMAO-B inhibition IC50
[8] = test system: reserpinized mice; conditions: reserpinized mice pre-treated with levodopa and benserazide
[9] = test system: tyrosinase; parameters: method as in PMID 32652434
[10] = parameters: method as in PMID 31887477; conditions: inhibitor of thioredoxin reductases (TrxRs); read-out: antitumor activity IC50
[11] = test system: hA3 receptors; parameters: method as in PMID 31738058; conditions: antagonists

Q: With `COc1ccc(-c2cc3cc([N+](=O)[O-])ccc3oc2=O)cc1` [3-(4-methoxyphenyl)-6-nitrocoumarin] as the compound, how does the IC50 [1] read?
A: 8400 nM

Q: And the “cytotoxicity in B16F10 cells” value [2]?
A: non-cytotoxic

Q: Which results are given for `COc1c2occc2cc2ccc(=O)oc12` [xanthotoxin]?
A: cognitive deficits in the Morris water maze and object recognition tests [3]: prevent cognitive deficits; activity of hippocampal AChE [4]: reduced; expression of NF-κB inhibitor (IκB-α) [4]: upregulating; glutathione content [4]: increasing; level of malondialdehyde [4]: reduced; level of proinflammatory cytokines [4]: reducing

Q: Which results are given for `Cc1c(Cc2ccc(OC(F)(F)F)cc2)c(=O)oc2cc(OCC(O)CN3CCC(C(N)=O)CC3)ccc12` (stereo not shown) [compound XVI]?
A: IC50 [5]: 500 nM; IC50 [6]: 1200 nM

Q: For `O=c1oc2cc(O)ccc2cc1-c1cc(Br)cs1` [3-(4′-bromothiophen-2′-yl)-7-hydroxycoumarin], which IC50 [7] is on record?
A: 140 nM

Q: What about the “in vivo profile on locomotor activity (OFT) versus selegiline” value [8] of the same compound?
A: slightly better in vivo profile than selegiline

Q: With `O=c1cc(OCc2cn(Cc3cocc(O)c3=O)nn2)c2ccccc2o1` [compound XXVI] as the compound, how does the tyrosinase inhibitory activity [9] read?
A: sub-micromolar range

Q: Which IC50 [10] does the source give for `CCN(CC)c1ccc2cc(/C=C/C(=O)c3ccc(OC)c(O)c3)c(=O)oc2c1` [compound V] here?
A: 3600 nM

Q: Which results are given for `O=c1ccc2ccc(O)cc2o1` [umbelliferone]?
A: cognitive deficits in the Morris water maze and object recognition tests [3]: prevent cognitive deficits; activity of hippocampal AChE [4]: reduced; expression of NF-κB inhibitor (IκB-α) [4]: upregulating; glutathione content [4]: increasing; level of malondialdehyde [4]: reduced; level of proinflammatory cytokines [4]: reducing; overexpression of inflammatory markers (nuclear factor κB and cyclooxygenase II) [4]: inhibiting

Q: Which hA3 receptor affinity [11] does the source give for `O=c1oc2c(O)cccc2cc1-c1ccc(Br)cc1` [compound XX] here?
A: low nanomolar range
